Measured values: US12006314B2, “Anti-cancer nuclear hormone receptor-targeting compounds” (Nuvation Bio Inc., priority 2021, dated 2024)
Numbering of substitutions follows the chain as printed.

How the values were obtained:
[1] = target: T1, ER (SK-BR-3 cells transfected with ERE plasmid and ER) (Homo sapiens, UniProt P03372); test: ER antagonism assay; type: cell-based; details: 100 nM β-Estradiol, 24 h, Dual-glo luciferase
T1 construct: expressed in transfected cells; host or cells: SK-BR-3 (transient, lipofectamine 3000)
T1 sequence (P03372 1-595): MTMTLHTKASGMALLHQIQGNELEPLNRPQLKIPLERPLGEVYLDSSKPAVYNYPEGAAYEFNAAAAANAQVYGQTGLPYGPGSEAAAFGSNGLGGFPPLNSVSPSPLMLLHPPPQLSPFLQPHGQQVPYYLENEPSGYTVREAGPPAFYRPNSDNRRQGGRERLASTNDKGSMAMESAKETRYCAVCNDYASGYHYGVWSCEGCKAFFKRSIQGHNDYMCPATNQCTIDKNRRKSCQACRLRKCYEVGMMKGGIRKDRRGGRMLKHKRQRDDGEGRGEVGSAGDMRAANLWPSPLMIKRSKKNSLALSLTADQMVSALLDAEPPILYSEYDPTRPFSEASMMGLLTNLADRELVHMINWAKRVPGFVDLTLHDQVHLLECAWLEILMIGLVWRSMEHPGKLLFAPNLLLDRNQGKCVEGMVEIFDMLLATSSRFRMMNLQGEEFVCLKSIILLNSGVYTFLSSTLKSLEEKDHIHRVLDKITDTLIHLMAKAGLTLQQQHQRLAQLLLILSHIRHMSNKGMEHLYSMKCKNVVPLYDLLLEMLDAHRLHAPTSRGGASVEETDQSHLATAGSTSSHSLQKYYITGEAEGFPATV
Method: ER antagonism assay: To evaluate ER antagonist activity, SK-BR-3 cells were seeded at a density of 30000 cells/well in the assay plate. The assay plate was then incubated at 37° C., 5% CO2 for 24 h. A mixture of ERE plasmid and ER in opti-MEM media was incubated with lipofectamine 3000 in Opti-MEM media and incubated at room temperature for 15 minutes. 10 μL of this transfection mix was added to each well of the assay plate and the assay plate was incubated at 37° C., 5% CO2 for 24 h. 100 nM β-Estradiol in 10 μL medium or 10 μL medium (control wells) was added to corresponding wells of assay plate and incubated at 37° C. 5% CO2 for 24 h. After the incubation period, 50 μL of Dual-glo luciferase reagent was added to the assay plate and mixed at room temperature for 20 mins on an orbital shaker, before reading out on the EnVision plate reader. 50 μL of Stop & Glo reagent was added to assay plate, mixed at room temperature for 20 minutes, and read on the Envision plate reader.

MCF7 cells = test: Cell viability assay MCF7; type: cell-based; details: Homo sapiens, MCF7, 144 h; 6 days, CellTiterGlo
Method: (§1) Cell viability assay: LNCap, 22Rv1, MCF7, MDAMB361, T47D, and IEC6 cells were seeded at a density of 500-2000 cells/well in 96 well plates, and a ‘T0’ (timepoint 0) was included along with the assay plate. The plates were then incubated at 37° C., 5% CO2 in a cell culture incubator overnight. On the next day, the ‘T0’ plate was assayed using CellTiterGlo (Promega, Inc) according to the manufacturer's instructions. The appropriate compounds were diluted in DMSO and added to the assay plate (final DMSO concentration of 0.1-0.2%) on the next day. The assay plates were incubated for 6 days at 37° C., 5% CO2. After the incubation period, the plates were assayed using CellTiterGlo (Promega, Inc) according to the manufacturer's instructions and luminescence was read on the EnVision plate reader. Inhibition of the tested compounds was determined by the following formula: Inhibition rate (%)=(1−(RLU compound−RLU day0)/(RLU control−RLU day0))*100%. GraphPadPrism was used to analyze the data and determine GI50/IC50 values.

MDAMB361 cells = test: Cell viability assay MDAMB361; type: cell-based; details: Homo sapiens, MDA-MB-361, 144 h; 6 days, CellTiterGlo
Method: as §1

IEC6 cells = test: Cell viability assay IEC6; type: cell-based; details: Rattus norvegicus, IEC-6, 144 h; 6 days, CellTiterGlo
Method: as §1

[2] = target: T2, AR (cytosol from LnCaP cells) (Homo sapiens, UniProt P10275, T878A); test: AR binding assay; details: 3H-R1881 1 nM, 4° C. 24 hrs
T2 construct: endogenous in cells; host or cells: LNCaP cytosol
T2 sequence (P10275 1-920 T878A): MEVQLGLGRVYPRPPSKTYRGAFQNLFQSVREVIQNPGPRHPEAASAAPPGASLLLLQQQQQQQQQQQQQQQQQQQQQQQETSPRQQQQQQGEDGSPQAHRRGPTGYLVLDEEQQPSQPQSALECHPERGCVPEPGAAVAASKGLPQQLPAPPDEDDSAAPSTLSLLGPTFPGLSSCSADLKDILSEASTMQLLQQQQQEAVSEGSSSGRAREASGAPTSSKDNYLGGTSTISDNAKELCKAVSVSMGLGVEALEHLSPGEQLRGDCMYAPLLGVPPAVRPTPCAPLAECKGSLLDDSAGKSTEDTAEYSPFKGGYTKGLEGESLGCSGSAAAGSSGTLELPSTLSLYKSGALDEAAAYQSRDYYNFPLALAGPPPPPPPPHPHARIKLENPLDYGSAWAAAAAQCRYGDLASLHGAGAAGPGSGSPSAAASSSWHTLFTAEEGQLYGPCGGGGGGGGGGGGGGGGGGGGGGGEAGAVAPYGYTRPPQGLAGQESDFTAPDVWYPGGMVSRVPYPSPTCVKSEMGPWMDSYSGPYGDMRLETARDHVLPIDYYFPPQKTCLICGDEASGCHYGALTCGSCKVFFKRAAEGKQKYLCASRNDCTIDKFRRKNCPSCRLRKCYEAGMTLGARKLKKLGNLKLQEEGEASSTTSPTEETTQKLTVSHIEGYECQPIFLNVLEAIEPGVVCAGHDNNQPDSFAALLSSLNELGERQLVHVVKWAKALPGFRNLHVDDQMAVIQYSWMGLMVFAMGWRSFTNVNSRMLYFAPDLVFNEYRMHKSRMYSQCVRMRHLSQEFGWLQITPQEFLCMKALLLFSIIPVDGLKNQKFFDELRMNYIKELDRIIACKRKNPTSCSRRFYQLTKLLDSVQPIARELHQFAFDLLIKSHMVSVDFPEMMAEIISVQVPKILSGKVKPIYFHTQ
Method: AR binding assay: To assess AR binding, test compound (top dose 10 μM, 4 fold serial dilution, 8 point dose response) and control (progesterone) were transferred to the assay plate. Cytosol from LnCaP cells was added to the plate, followed by addition of radiolabeled ^3H-R1881 at a final concentration of 1 nM. The plate was sealed, and the reaction was incubated at 300 rpm at 4° C. for 24 hrs. Radioligand absorption buffer (10 mM Tris-HCl, pH 7.4; 1.5 mM EDTA; 1 mM DTT; 0.25% charcoal; 0.0025% dextran) was then added to the plate, mixed, and incubated at 4° C. for 15 minutes. The plate was then centrifuged at 3000 rpm for 30 minutes at 4° C. The supernatant was transferred to the scint-tube and Tri-carb was used for scintillation counting.

[3] = target: T3, full-length androgen receptor (HEK293 cells stably expressing) (Homo sapiens, UniProt P10275); test: AR antagonism assay; type: cell-based; details: testosterone 1 nM, 20 h, Steady-glo
T3 construct: HEK293 cells stably expressing the full-length androgen receptor were seeded; expressed in transfected cells
T3 sequence (P10275 1-920): T2 sequence (P10275 1-920 T878A) with A878T
Method: AR antagonism assay: To evaluate AR antagonist activity, test compound was added to the assay plate (top dose 10 μM, 3 fold serial dilution, 10 point dose response). HEK293 cells stably expressing the full-length androgen receptor were seeded at a density of 20000 cells/well in the assay plate. The assay plate was then incubated at room temperature for 10 minutes and at 37° C., 5% CO2 for 20 minutes. Testosterone is added to the assay plate at 1 nM final concentration and the assay plate incubated at 37° C., 5% CO2 for 20 h. After the incubation period, Steady-glo was added to the assay plate and mixed at room temperature for 20 minutes on an orbital shaker, before reading out on the EnVision plate reader.

LNCap cells = test: Cell viability assay LNCap; type: cell-based; details: Homo sapiens, 144 h, 6 days, CellTiterGlo
Method: as §1

22Rv1 cells = test: Cell viability assay 22Rv1; type: cell-based; details: Homo sapiens, 22Rv1, 144 h; 6 days, CellTiterGlo
Method: as §1

Row | Structure (SMILES) | IC50 [1] [µM] | GI50 (MCF7 cells) [µM] | GI50 (MDAMB361 cells) [µM] | IC50 (IEC6 cells) [µM] | IC50 [2] [µM] | IC50 [3] [µM] | GI50 (LNCap cells) [µM] | GI50 (22Rv1 cells) [µM]
1 | CCc1cc2ncc(CN3CCN(CCCCCCOc4cc(F)c([C@@H]5c6[nH]c7ccccc7c6C[C@@H](C)N5CC(C)(C)F)c(F)c4)CC3)cc2[nH]c1=O [Compound 72, 7-((4-(6-(3,5-Difluoro-4-((1R,3R)-2-(2-fluoro-2-methylpropyl)-3-methyl-2,3,4,9-tetrahydro-1H-1-pyrido[3,4-b]indol-1-yl)phenoxy)hexyl)piperazin-1-yl)methyl)-3-ethyl-1,5-naphthyridin-2(1H)-one] | ≤ 0.1 | ≤ 0.5 | ≤ 0.5 | 5 to 30 | – | – | – | –
2 | CCc1cc2ncc(CN3CCN(CC4CCN(c5ccc(C(=O)N[C@H]6C(C)(C)[C@H](Oc7ccc(C#N)c(Cl)c7)C6(C)C)nn5)CC4)CC3)cc2[nH]c1=O [Compound 13, N-((1r,3r)-3-(3-Chloro-4-cyanophenoxy)-2,2,4,4-tetramethylcyclobutyl)-6-(4-((4-((7-ethyl-6-oxo-5,6-dihydro-1,5-naphthyridin-3-yl)methyl)piperazin-1-yl)methyl)piperidin-1-yl)pyridazine-3-carboxamide] | – | – | – | 0.5 to 5 | < 0.1 | > 10 | 0.5 to 5 | 0.5 to 5
3 | CCc1cc2ncc(CN3CCN(CC4CCN(c5ccc(C(=O)N[C@H]6CC[C@H](Oc7ccc(C#N)c(Cl)c7C)CC6)nn5)CC4)CC3)cc2[nH]c1=O [Compound 66, N-((1r,4r)-4-(3-Chloro-4-cyano-2-methylphenoxy)cyclohexyl)-6-(4-((4-((7-ethyl-6-oxo-5,6-dihydro-1,5-naphthyridin-3-yl)methyl)piperazin-1-yl)methyl)piperidin-1-yl)pyridazine-3-carboxamide] | – | – | – | 0.5 to 5 | < 0.1 | > 10 | ≤ 0.5 | ≤ 0.5
4 | CCc1cc2ncc(CN3CCN(CC4CCN(c5ccc(C(=O)N[C@H]6CC[C@H](Oc7ccc(C#N)c(Cl)c7)CC6)nn5)CC4)CC3)cc2[nH]c1=O [Compound 4, N-((1r,4r)-4-(3-Chloro-4-cyanophenoxy)cyclohexyl)-6-(4-((4-((7-ethyl-6-oxo-5,6-dihydro-1,5-naphthyridin-3-yl)methyl)piperazin-1-yl)methyl)piperidin-1-yl)pyridazine-3-carboxamide] | – | – | – | > 30 | < 0.1 | > 10 | ≤ 0.5 | ≤ 0.5
5 | CCc1cc2ncc(CN3CCN(c4ccc(-c5nnc([C@H]6[C@H](C)OC(=O)N6c6ccc(C#N)c(Cl)c6)o5)cc4)CC3)cc2[nH]c1=O [Compound 65, 2-Chloro-4-((4R,5S)-4-(5-(4-(4-((7-ethyl-6-oxo-5,6-dihydro-1,5-naphthyridin-3-yl)methyl)-piperazin-1-yl)phenyl)-1,3,4-oxadiazol-2-yl)-5-methyl-2-oxooxazolidin-3-yl)benzonitrile] | – | – | – | > 30 | > 10 | > 10 | 5 to 30 | > 30
